From ChEMBL document CHEMBL5113403, “Design, synthesis, and biological evaluation of novel pyrazolo [3,4-d]pyrimidine derivatives as potent PLK4 inhibitors for the treatment of TRIM37-amplified breast cancer” (Eur J Med Chem, 2022)
Values belong to the molecule of their own block, whether it stands above or below them.

What was measured:
[1] = target: T1, Serine/threonine-protein kinase PLK4 (Homo sapiens, UniProt O00444); assay: Inhibition of recombinant human PLK4 incubated for 60 mins by Lanthascreen Eu kinase binding assay
T1 sequence (O00444 whole entry): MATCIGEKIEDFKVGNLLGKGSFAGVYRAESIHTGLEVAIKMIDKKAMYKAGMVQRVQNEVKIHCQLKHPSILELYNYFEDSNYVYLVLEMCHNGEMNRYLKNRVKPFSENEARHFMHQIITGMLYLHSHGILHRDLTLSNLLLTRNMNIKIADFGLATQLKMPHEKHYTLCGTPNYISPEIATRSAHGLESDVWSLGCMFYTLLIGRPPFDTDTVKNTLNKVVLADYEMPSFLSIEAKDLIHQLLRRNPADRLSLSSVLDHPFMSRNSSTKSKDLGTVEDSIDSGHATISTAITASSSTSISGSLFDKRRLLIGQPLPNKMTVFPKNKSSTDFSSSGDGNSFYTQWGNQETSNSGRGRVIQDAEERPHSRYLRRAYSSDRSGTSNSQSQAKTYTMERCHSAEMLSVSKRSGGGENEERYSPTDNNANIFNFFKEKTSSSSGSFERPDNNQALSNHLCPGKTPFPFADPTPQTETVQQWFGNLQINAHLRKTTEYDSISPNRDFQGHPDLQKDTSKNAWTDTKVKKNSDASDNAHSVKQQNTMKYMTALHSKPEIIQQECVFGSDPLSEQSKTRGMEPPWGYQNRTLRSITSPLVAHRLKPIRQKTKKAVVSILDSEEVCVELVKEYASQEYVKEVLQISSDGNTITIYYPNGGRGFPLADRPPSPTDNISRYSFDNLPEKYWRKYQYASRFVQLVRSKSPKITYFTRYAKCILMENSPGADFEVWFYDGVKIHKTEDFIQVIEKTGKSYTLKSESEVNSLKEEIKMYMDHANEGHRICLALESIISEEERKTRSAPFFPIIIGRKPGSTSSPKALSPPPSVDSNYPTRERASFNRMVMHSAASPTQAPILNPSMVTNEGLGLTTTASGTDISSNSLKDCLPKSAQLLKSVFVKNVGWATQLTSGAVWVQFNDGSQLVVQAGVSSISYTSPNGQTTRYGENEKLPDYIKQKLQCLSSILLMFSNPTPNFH

MCF7 = assay: Antiproliferative activity against human MCF7 cells assessed as cell growth inhibition incubated for 5 days by MTT assay; type: functional, cell-based; details: MCF7, 120 h
BT-474 = assay: Antiproliferative activity against human BT-474 cells assessed as cell growth inhibition incubated for 5 days by MTT assay; type: functional, cell-based; details: BT-474, 120 h
MDA-MB-231 = assay: Antiproliferative activity against human MDA-MB-231 cells assessed as cell growth inhibition incubated for 5 days by MTT assay; type: functional, cell-based; details: MDA-MB-231, 120 h
[2] = target: T2, Serine/threonine-protein kinase PAK 4 (Homo sapiens, UniProt O96013); assay: Inhibition of PAK4 (unknown origin) incubated for 60 mins by time-resolved HTRF assay
T2 sequence (O96013 whole entry): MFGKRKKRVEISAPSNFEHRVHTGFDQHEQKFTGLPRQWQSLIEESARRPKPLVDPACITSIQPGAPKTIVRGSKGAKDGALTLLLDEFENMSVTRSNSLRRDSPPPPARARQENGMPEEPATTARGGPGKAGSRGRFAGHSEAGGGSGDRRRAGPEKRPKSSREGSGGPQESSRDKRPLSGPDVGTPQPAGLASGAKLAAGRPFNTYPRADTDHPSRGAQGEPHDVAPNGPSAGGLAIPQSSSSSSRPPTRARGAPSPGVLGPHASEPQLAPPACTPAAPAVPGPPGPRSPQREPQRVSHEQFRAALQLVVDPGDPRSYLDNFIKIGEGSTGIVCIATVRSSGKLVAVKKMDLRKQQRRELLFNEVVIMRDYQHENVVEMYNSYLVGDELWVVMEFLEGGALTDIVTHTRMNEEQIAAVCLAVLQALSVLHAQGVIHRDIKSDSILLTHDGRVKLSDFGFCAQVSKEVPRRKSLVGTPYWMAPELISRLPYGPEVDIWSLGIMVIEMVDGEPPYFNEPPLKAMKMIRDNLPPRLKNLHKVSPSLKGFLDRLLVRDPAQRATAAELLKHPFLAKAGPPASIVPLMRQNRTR

CYP2C9 = CYP2C9 (Homo sapiens, UniProt P11712); assay: Inhibition of CYP2C9 in human liver microsomes at 10 uM preincubated for 10 mins followed by addition of NADPH-regenerating system and measured after 15 mins by LC-MS/MS analysis relative to control; type: ADME, Microsome; details: time 25 min
CYP2C9, sequence (P11712 whole entry): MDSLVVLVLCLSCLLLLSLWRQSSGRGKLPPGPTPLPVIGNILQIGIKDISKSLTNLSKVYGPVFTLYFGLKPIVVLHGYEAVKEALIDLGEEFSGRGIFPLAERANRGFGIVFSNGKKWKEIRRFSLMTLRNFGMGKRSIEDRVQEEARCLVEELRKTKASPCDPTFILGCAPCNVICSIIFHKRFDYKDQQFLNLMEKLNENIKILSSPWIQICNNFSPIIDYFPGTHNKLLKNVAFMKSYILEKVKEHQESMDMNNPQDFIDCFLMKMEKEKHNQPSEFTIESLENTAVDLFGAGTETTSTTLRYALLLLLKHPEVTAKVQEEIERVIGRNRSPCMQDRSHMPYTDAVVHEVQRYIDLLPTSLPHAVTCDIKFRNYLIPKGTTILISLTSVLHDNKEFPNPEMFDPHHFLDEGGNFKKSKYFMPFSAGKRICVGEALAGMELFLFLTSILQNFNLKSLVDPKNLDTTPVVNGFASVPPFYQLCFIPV

CYP2D6 = CYP2D6 (Homo sapiens, UniProt P10635); assay: Inhibition of CYP2D6 in human liver microsomes at 10 uM preincubated for 10 mins followed by addition of NADPH-regenerating system and measured after 15 mins by LC-MS/MS analysis relative to control; type: ADME, Microsome; details: time 25 min
CYP2D6, sequence (P10635 whole entry): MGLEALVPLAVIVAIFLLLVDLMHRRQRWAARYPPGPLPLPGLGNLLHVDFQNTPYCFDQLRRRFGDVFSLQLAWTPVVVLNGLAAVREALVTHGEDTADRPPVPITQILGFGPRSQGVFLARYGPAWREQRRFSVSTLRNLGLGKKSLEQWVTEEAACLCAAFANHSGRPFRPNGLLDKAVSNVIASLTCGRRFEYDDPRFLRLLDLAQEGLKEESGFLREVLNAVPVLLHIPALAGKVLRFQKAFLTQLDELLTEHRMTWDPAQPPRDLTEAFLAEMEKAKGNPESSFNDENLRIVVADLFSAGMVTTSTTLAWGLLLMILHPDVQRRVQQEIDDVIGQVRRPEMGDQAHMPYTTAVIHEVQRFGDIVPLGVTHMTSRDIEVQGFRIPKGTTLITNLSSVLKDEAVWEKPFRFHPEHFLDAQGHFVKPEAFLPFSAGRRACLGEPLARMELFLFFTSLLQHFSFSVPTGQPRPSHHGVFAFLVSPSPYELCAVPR

[3] = target: T1, Serine/threonine-protein kinase PLK4; assay: Inhibition of PLK4 (unknown origin)
[4] = target: T3, Serine/threonine-protein kinase PLK4 (Homo sapiens) (UniProt O00444); assay: Inhibition of PLK4 (unknown origin) at 2 uM relative to control
T3 sequence (whole entry): T1 sequence (O00444 whole entry)

[5] = target: T2, Serine/threonine-protein kinase PAK 4; assay: Inhibition of PAK4 (unknown origin) using S2 as substrate incubated for 60 mins in the presence of ATP by time-resolved HTRF assay

IC50 [1]: 7 nM
IC50 (MCF7): 790 nM
IC50 (BT-474): 2350 nM
IC50 (MDA-MB-231): 3220 nM
SMILES: Cc1cc(Nc2nc(NCc3ccc(Cl)cc3)nc3c2cnn3C2CCNCC2)n[nH]1

SMILES: Cc1cc(Nc2nc(NCc3ccc(Cl)cc3)nc3[nH]ncc23)n[nH]1
IC50 [1]: 0.3 nM
IC50 [2]: 515 nM
IC50 (MCF7): 860 nM
IC50 (BT-474): 11700 nM
IC50 (MDA-MB-231): 7500 nM

SMILES: Cc1cc(Nc2nc(NCc3ccccc3F)nc3[nH]ncc23)n[nH]1
IC50 [1]: 1 nM
IC50 [2]: 389 nM
IC50 (MCF7): 2310 nM
IC50 (BT-474): 13200 nM
IC50 (MDA-MB-231): 9850 nM

IC50 (MCF7): 2270 nM
IC50 (BT-474): 10500 nM
IC50 (MDA-MB-231): 8690 nM
SMILES: COc1c(Nc2cc(C)[nH]n2)nc(Sc2ccc(S(=O)(=O)Cc3cccc([N+](=O)[O-])c3F)cc2F)nc1N1CCOCC1

SMILES: Cc1cc(Nc2nc(NCc3ccc(C#N)cc3)nc3[nH]ncc23)n[nH]1
IC50 [1]: 10.5 nM
IC50 (MCF7): 6060 nM
IC50 (BT-474): 12100 nM
IC50 (MDA-MB-231): 1360 nM

IC50 [1]: 0.7 nM
IC50 [2]: 231 nM
IC50 (MCF7): 410 nM
IC50 (BT-474): 2970 nM
IC50 (MDA-MB-231): 1080 nM
SMILES: Cc1cc(Nc2nc(NCc3ccc(F)cc3F)nc3c2cnn3C2CCNCC2)n[nH]1

SMILES: Cc1cc(Nc2nc(NCc3ccc(Cl)cc3)nc3c2cnn3-c2ccc(F)cc2)n[nH]1
IC50 [1]: 241 nM

SMILES: Cc1cc(Nc2nc(NCc3ccc(F)cc3F)nc3c2cnn3C)n[nH]1
IC50 [1]: 17.5 nM

SMILES: Cc1cc(Nc2nc(NCc3cccc(Br)c3)nc3[nH]ncc23)n[nH]1
IC50 [1]: 23.3 nM
IC50 [2]: 4340 nM

SMILES: Cc1cc(Nc2nc(NCc3ccc(Br)cc3)nc3[nH]ncc23)n[nH]1
IC50 [1]: 5.6 nM
IC50 [2]: 1320 nM
IC50 (MCF7): 5340 nM
IC50 (BT-474): 4110 nM
IC50 (MDA-MB-231): 1860 nM

SMILES: Cc1cc(Nc2nc(NCc3c(F)cc(F)cc3F)nc3[nH]ncc23)n[nH]1
IC50 [1]: 78.5 nM

SMILES: Cc1cc(Nc2nc(NCc3ccccc3Cl)nc3[nH]ncc23)n[nH]1
IC50 [1]: 0.7 nM
IC50 [2]: 668 nM
IC50 (MCF7): 4130 nM
IC50 (BT-474): 7160 nM
IC50 (MDA-MB-231): 4210 nM

SMILES: Cc1cc(Nc2nc(NCc3cccc(F)c3)nc3[nH]ncc23)n[nH]1
IC50 [1]: 14.6 nM
IC50 [2]: 458 nM

SMILES: Cc1cc(Nc2nc(NCc3ccccc3Br)nc3[nH]ncc23)n[nH]1
IC50 [1]: 8.7 nM
IC50 [2]: 1090 nM
IC50 (MCF7): 14100 nM
IC50 (BT-474): 10100 nM
IC50 (MDA-MB-231): 3990 nM

SMILES: Fc1ccc(CNc2nc(Nc3cc(-c4ccccc4)[nH]n3)c3cnn(C4CCOCC4)c3n2)c(F)c1
IC50 [1]: 969 nM

inhibition at 0.25 h, 10 µM (CYP2C9): 81.4%
SMILES: Nc1ccc(S(=O)(=O)Nc2ccnn2-c2ccccc2)cc1 [SULFAPHENAZOLE]

SMILES: Fc1ccc(-c2cc(Nc3nc(NCc4ccc(F)cc4F)nc4c3cnn4C3CCOCC3)n[nH]2)cc1
IC50 [1]: 1290 nM

SMILES: Fc1ccc(CNc2nc(Nc3cc(C4CC4)[nH]n3)c3cnn(C4CCOCC4)c3n2)c(F)c1
IC50 [1]: 1.8 nM
IC50 (MCF7): 2480 nM
IC50 (BT-474): 7240 nM
IC50 (MDA-MB-231): 2560 nM

SMILES: Cc1cc(Nc2nc(NCc3ccc(F)c(F)c3)nc3[nH]ncc23)n[nH]1
IC50 [1]: 22.2 nM

SMILES: Cc1cc(Nc2nc(NCc3ccc(F)cc3F)nc3c2cnn3CC(C)(C)O)n[nH]1
IC50 [1]: 2.7 nM
IC50 [2]: 655 nM
IC50 (MCF7): 160 nM
IC50 (BT-474): 19400 nM
IC50 (MDA-MB-231): 2510 nM

SMILES: Cc1cc(Nc2nc(NCc3ccc(F)cc3)nc3[nH]ncc23)n[nH]1
IC50 [1]: 0.8 nM
IC50 [2]: 395 nM
IC50 (MCF7): 970 nM
IC50 (BT-474): 8750 nM
IC50 (MDA-MB-231): 8410 nM

inhibition at 0.25 h, 10 µM (CYP2D6): 95.9%
SMILES: C=C[C@H]1C[N@@]2CC[C@H]1C[C@@H]2[C@@H](O)c1ccnc2ccc(OC)cc12 [QUINIDINE]

SMILES: Cc1cc(Nc2nc(NCc3ccc(F)cc3F)nc3c2cnn3C(C)C)n[nH]1
IC50 [1]: 1.1 nM
IC50 (MCF7): 4320 nM
IC50 (BT-474): 17300 nM
IC50 (MDA-MB-231): 5350 nM

SMILES: Cc1cc(Nc2nc(NCc3cccc(Cl)c3)nc3[nH]ncc23)n[nH]1
IC50 [1]: 5.5 nM
IC50 [2]: 611 nM
IC50 (MCF7): 5620 nM
IC50 (BT-474): 12800 nM
IC50 (MDA-MB-231): 6860 nM

SMILES: Cc1cc(Nc2nc(NCc3ccc(F)cc3F)nc3c2cnn3C2CCCCC2)n[nH]1
IC50 [1]: 7.9 nM
IC50 (MCF7): 810 nM
IC50 (BT-474): 6230 nM
IC50 (MDA-MB-231): 2960 nM

SMILES: Cc1cc(Nc2nc(NCc3ccc(Cl)cc3)nc3c2cnn3C)n[nH]1
IC50 [1]: 20.2 nM

SMILES: COc1ccc(CNc2nc(Nc3cc(C)[nH]n3)c3cn[nH]c3n2)cc1
IC50 [1]: 6.5 nM
IC50 (MCF7): 3320 nM
IC50 (BT-474): 8230 nM
IC50 (MDA-MB-231): 1320 nM

SMILES: Cc1cnc(Nc2nc(NCc3ccc(F)cc3F)nc3c2cnn3C2CCOCC2)s1
IC50 [1]: 20.7 nM

SMILES: Fc1ccc(CNc2nc(Nc3n[nH]c4ccc(Cl)cc34)c3cnn(C4CCOCC4)c3n2)c(F)c1
IC50 [1]: 3180 nM

SMILES: CC(C)(C)c1cc(Nc2nc(NCc3ccc(F)cc3F)nc3c2cnn3C2CCOCC2)n[nH]1
IC50 [1]: 726 nM

IC50 [1]: 484 nM
IC50 [2]: 273 nM
SMILES: Cc1cc(Nc2nc(NC3CCNCC3)nc3[nH]ncc23)n[nH]1

IC50 [1]: 206 nM
IC50 [2]: 5900 nM
SMILES: Cc1cc(Nc2nc(Nc3ccccc3)nc3[nH]ncc23)n[nH]1

SMILES: Cc1cc(Nc2nc(NCc3ccc(Cl)cc3)nc3c2cnn3C2CCCCC2)n[nH]1
IC50 [1]: 47.9 nM

IC50 [1]: 533 nM
IC50 [2]: 1500 nM
SMILES: Cc1cc(Nc2nc(N3CCNCC3)nc3[nH]ncc23)n[nH]1

SMILES: Cc1cc(Nc2nc(Cl)nc3[nH]ncc23)n[nH]1
IC50 [1]: 489 nM
IC50 [2]: 5940 nM

SMILES: Cc1cc(Nc2nc(NCc3ccc(Cl)cc3)nc3c2cnn3C(C)C)n[nH]1
IC50 [1]: 3.7 nM
IC50 (MCF7): 2040 nM
IC50 (BT-474): 13000 nM
IC50 (MDA-MB-231): 4860 nM

IC50 [3]: 351 nM
inhibition [4]: 58.4%
IC50 [5]: 5.9 nM
SMILES: Cc1cc(Nc2cc(Cc3ccccc3)nc(NC3CCNCC3)n2)n[nH]1

IC50 [1]: 454 nM
IC50 [2]: 1050 nM
SMILES: Cc1cc(Nc2nc(NC3CCNC3)nc3[nH]ncc23)n[nH]1 (configuration not stated)

SMILES: Cc1cc(Nc2nc(NCc3ccc(F)cc3F)nc3[nH]ncc23)n[nH]1
IC50 [1]: 0.1 nM
IC50 [2]: 96.1 nM
IC50 (MCF7): 670 nM
IC50 (BT-474): 3220 nM
IC50 (MDA-MB-231): 2670 nM

SMILES: Fc1ccc(CNc2nc(Nc3n[nH]c4ccccc34)c3cnn(C4CCOCC4)c3n2)c(F)c1
IC50 [1]: 536 nM

SMILES: CCc1cc(Nc2nc(NCc3ccc(F)cc3F)nc3c2cnn3C2CCOCC2)n[nH]1
IC50 [1]: 0.7 nM
IC50 (MCF7): 1790 nM
IC50 (BT-474): 3060 nM
IC50 (MDA-MB-231): 2790 nM

SMILES: Cc1cc(Nc2nc(NCc3ccc(Cl)cc3)nc3c2cnn3CC(C)(C)O)n[nH]1
IC50 [1]: 3.8 nM
IC50 (MCF7): 1940 nM
IC50 (BT-474): 16200 nM
IC50 (MDA-MB-231): 3980 nM

SMILES: Cc1cc(Nc2nc(NCc3ccc(Cl)cc3)nc3c2cnn3CC(F)(F)F)n[nH]1
IC50 [1]: 118 nM

SMILES: Cc1cc(Nc2nc(NCc3ccc(Cl)cc3)nc3c2cnn3C2CCOCC2)n[nH]1
IC50 [1]: 4 nM
IC50 (MCF7): 1550 nM
IC50 (BT-474): 18300 nM
IC50 (MDA-MB-231): 9420 nM

SMILES: Cc1cc(Nc2nc(NCc3ccccc3)nc3[nH]ncc23)n[nH]1
IC50 [1]: 21.2 nM
IC50 [2]: 1960 nM
